Experimental data: ChEMBL document CHEMBL2029316, “Linker-based hemisuccinate derivatives of artemisinin: synthesis and antimalarial assessment against multidrug-resistant Plasmodium yoelii nigeriensis in mice” (J Med Chem, 2012)
Calls of active or inactive are those of the source. The calls are words filed in the database; no cut-off is given here.

Tested on: Plasmodium yoelii nigeriensis
Test: Antimalarial activity against chloroquine-, mefloquine-, halofantrine-resistant Plasmodium yoelii nigeriensis blood stream schizonts infected in Swiss mouse assessed as suppression of parasitemia at 48 mg/kg, im administered once daily for 4 days relative to control
Type: functional
Conditions: route intramuscular

Row | SMILES | Activity [%]
1 | C[C@H]1[C@@H](OCCCCCCCCO)O[C@@H]2O[C@@]3(C)CC[C@H]4[C@H](C)CC[C@@H]1[C@@]24OO3 | 100
2 | C[C@H]1[C@@H](OCCCCCCCCCCOC(=O)CCC(=O)O)O[C@@H]2O[C@@]3(C)CC[C@H]4[C@H](C)CC[C@@H]1[C@@]24OO3 | 100
3 | C[C@H]1[C@@H](OCCO)O[C@@H]2O[C@@]3(C)CC[C@H]4[C@H](C)CC[C@@H]1[C@@]24OO3 | 100
4 | C[C@H]1[C@@H](OCCCO)O[C@@H]2O[C@@]3(C)CC[C@H]4[C@H](C)CC[C@@H]1[C@@]24OO3 | 100
5 | C[C@H]1[C@@H](OCCOCCOCCO)O[C@@H]2O[C@@]3(C)CC[C@H]4[C@H](C)CC[C@@H]1[C@@]24OO3 | 100
6 | C[C@H]1[C@H](OC(=O)CCC(=O)O)O[C@@H]2O[C@@]3(C)CC[C@H]4[C@H](C)CC[C@@H]1[C@@]24OO3 [ARTESUNATE] | 100

Tested on: Plasmodium yoelii nigeriensis
Test: Antimalarial activity against chloroquine-, mefloquine-, halofantrine-resistant Plasmodium yoelii nigeriensis blood stream schizonts infected in Swiss mouse assessed as disease cured mouse at 48 mg/kg, im administered once daily for 4 days measured on day 28
Type: functional, organism-based
Design: dose 48 mg/kg
Conditions: not given

Row | SMILES | Activity
7 | C[C@H]1[C@@H](OCCCCCCCCO)O[C@@H]2O[C@@]3(C)CC[C@H]4[C@H](C)CC[C@@H]1[C@@]24OO3 | Active
8 | C[C@H]1[C@@H](OCCCCCCCCCCOC(=O)CCC(=O)O)O[C@@H]2O[C@@]3(C)CC[C@H]4[C@H](C)CC[C@@H]1[C@@]24OO3 | Active
9 | C[C@H]1[C@@H](OCCO)O[C@@H]2O[C@@]3(C)CC[C@H]4[C@H](C)CC[C@@H]1[C@@]24OO3 | Active
10 | C[C@H]1[C@@H](OCCCO)O[C@@H]2O[C@@]3(C)CC[C@H]4[C@H](C)CC[C@@H]1[C@@]24OO3 | Active
11 | C[C@H]1[C@H](OC(=O)CCC(=O)O)O[C@@H]2O[C@@]3(C)CC[C@H]4[C@H](C)CC[C@@H]1[C@@]24OO3 [ARTESUNATE] | Active

Tested on: Plasmodium yoelii nigeriensis
Test: Antimalarial activity against chloroquine-, mefloquine-, halofantrine-resistant Plasmodium yoelii nigeriensis blood stream schizonts infected in Swiss mouse assessed as disease cured mouse at 3 mg/kg, im administered once daily for 4 days measured on day 28
Type: functional, organism-based
Design: dose 3 mg/kg
Conditions: not given

Row | SMILES | Activity
12 | C[C@H]1[C@@H](OCCCO)O[C@@H]2O[C@@]3(C)CC[C@H]4[C@H](C)CC[C@@H]1[C@@]24OO3 | inactive

Tested on: not listed separately
Test: Drug degradation in aqueous NaHCO3 under ambient temperature within 48 hrs
Type: physicochemical
Conditions: buffer

Row | SMILES | Drug degradation
13 | C[C@H]1[C@@H](OCCCCCCCCCCOC(=O)CCC(=O)O)O[C@@H]2O[C@@]3(C)CC[C@H]4[C@H](C)CC[C@@H]1[C@@]24OO3 | Not Active
14 | C[C@H]1[C@H](OC(=O)CCC(=O)O)O[C@@H]2O[C@@]3(C)CC[C@H]4[C@H](C)CC[C@@H]1[C@@]24OO3 [ARTESUNATE] | Active

Tested on: Plasmodium yoelii nigeriensis
Test: Antimalarial activity against chloroquine-, mefloquine-, halofantrine-resistant Plasmodium yoelii nigeriensis blood stream schizonts infected in Swiss mouse assessed as suppression of parasitemia at 6 mg/kg, im administered once daily for 4 days relative to control
Type: functional
Conditions: route intramuscular

Row | SMILES | Activity [%]
15 | C[C@H]1[C@@H](OCCCCCCCCO)O[C@@H]2O[C@@]3(C)CC[C@H]4[C@H](C)CC[C@@H]1[C@@]24OO3 | 100
16 | C[C@H]1[C@@H](OCCO)O[C@@H]2O[C@@]3(C)CC[C@H]4[C@H](C)CC[C@@H]1[C@@]24OO3 | 100
17 | C[C@H]1[C@@H](OCCCO)O[C@@H]2O[C@@]3(C)CC[C@H]4[C@H](C)CC[C@@H]1[C@@]24OO3 | 100

Tested on: Plasmodium yoelii nigeriensis
Test: Antimalarial activity against chloroquine-, mefloquine-, halofantrine-resistant Plasmodium yoelii nigeriensis blood stream schizonts infected in Swiss mouse assessed as suppression of parasitemia at 24 mg/kg, im administered once daily for 4 days relative to control
Type: functional
Conditions: route intramuscular

Row | SMILES | Activity [%]
18 | C[C@H]1[C@@H](OCCCCCCCCO)O[C@@H]2O[C@@]3(C)CC[C@H]4[C@H](C)CC[C@@H]1[C@@]24OO3 | 100
19 | C[C@H]1[C@@H](OCCCCCCCCCCOC(=O)CCC(=O)O)O[C@@H]2O[C@@]3(C)CC[C@H]4[C@H](C)CC[C@@H]1[C@@]24OO3 | 100
20 | C[C@H]1[C@@H](OCCO)O[C@@H]2O[C@@]3(C)CC[C@H]4[C@H](C)CC[C@@H]1[C@@]24OO3 | 100
21 | C[C@H]1[C@@H](OCCCO)O[C@@H]2O[C@@]3(C)CC[C@H]4[C@H](C)CC[C@@H]1[C@@]24OO3 | 100
22 | C[C@H]1[C@@H](OCCOCCOCCO)O[C@@H]2O[C@@]3(C)CC[C@H]4[C@H](C)CC[C@@H]1[C@@]24OO3 | 100
23 | C[C@H]1[C@H](OC(=O)CCC(=O)O)O[C@@H]2O[C@@]3(C)CC[C@H]4[C@H](C)CC[C@@H]1[C@@]24OO3 [ARTESUNATE] | 100

Tested on: not listed separately
Test: Lipophilicity, log P of the compound
Type: physicochemical
Conditions: octanol/water

Row | SMILES | logP
24 | C[C@H]1[C@@H](OCCCCCCCCO)O[C@@H]2O[C@@]3(C)CC[C@H]4[C@H](C)CC[C@@H]1[C@@]24OO3 | 5.22
25 | C[C@H]1[C@@H](OCCCCCCCCCCOC(=O)CCC(=O)O)O[C@@H]2O[C@@]3(C)CC[C@H]4[C@H](C)CC[C@@H]1[C@@]24OO3 | 5.95
26 | C[C@H]1[C@@H](OCCO)O[C@@H]2O[C@@]3(C)CC[C@H]4[C@H](C)CC[C@@H]1[C@@]24OO3 | 2.99
27 | C[C@H]1[C@@H](OCCCO)O[C@@H]2O[C@@]3(C)CC[C@H]4[C@H](C)CC[C@@H]1[C@@]24OO3 | 3.1
28 | C[C@H]1[C@@H](OCCOCCOCCO)O[C@@H]2O[C@@]3(C)CC[C@H]4[C@H](C)CC[C@@H]1[C@@]24OO3 | 2.68

Tested on: Plasmodium yoelii nigeriensis
Test: Antimalarial activity against chloroquine-, mefloquine-, halofantrine-resistant Plasmodium yoelii nigeriensis blood stream schizonts infected in Swiss mouse assessed as disease cured mouse at 12 mg/kg, im administered once daily for 4 days measured on day 28
Type: functional, organism-based
Design: dose 12 mg/kg
Conditions: not given

Row | SMILES | Activity
29 | C[C@H]1[C@@H](OCCCCCCCCO)O[C@@H]2O[C@@]3(C)CC[C@H]4[C@H](C)CC[C@@H]1[C@@]24OO3 | Active
30 | C[C@H]1[C@@H](OCCCCCCCCCCOC(=O)CCC(=O)O)O[C@@H]2O[C@@]3(C)CC[C@H]4[C@H](C)CC[C@@H]1[C@@]24OO3 | inactive
31 | C[C@H]1[C@@H](OCCOCCOCCO)O[C@@H]2O[C@@]3(C)CC[C@H]4[C@H](C)CC[C@@H]1[C@@]24OO3 | inactive
32 | C[C@H]1[C@H](OC(=O)CCC(=O)O)O[C@@H]2O[C@@]3(C)CC[C@H]4[C@H](C)CC[C@@H]1[C@@]24OO3 [ARTESUNATE] | inactive

Tested on: Plasmodium yoelii nigeriensis
Test: Antimalarial activity against chloroquine-, mefloquine-, halofantrine-resistant Plasmodium yoelii nigeriensis blood stream schizonts infected in Swiss mouse assessed as suppression of parasitemia at 12 mg/kg, im administered once daily for 4 days relative to control
Type: functional
Conditions: route intramuscular

Row | SMILES | Activity [%]
33 | C[C@H]1[C@@H](OCCCCCCCCO)O[C@@H]2O[C@@]3(C)CC[C@H]4[C@H](C)CC[C@@H]1[C@@]24OO3 | 100
34 | C[C@H]1[C@@H](OCCCCCCCCCCOC(=O)CCC(=O)O)O[C@@H]2O[C@@]3(C)CC[C@H]4[C@H](C)CC[C@@H]1[C@@]24OO3 | 98.18
35 | C[C@H]1[C@@H](OCCO)O[C@@H]2O[C@@]3(C)CC[C@H]4[C@H](C)CC[C@@H]1[C@@]24OO3 | 100
36 | C[C@H]1[C@@H](OCCCO)O[C@@H]2O[C@@]3(C)CC[C@H]4[C@H](C)CC[C@@H]1[C@@]24OO3 | 100
37 | C[C@H]1[C@@H](OCCOCCOCCO)O[C@@H]2O[C@@]3(C)CC[C@H]4[C@H](C)CC[C@@H]1[C@@]24OO3 | 100
38 | C[C@H]1[C@H](OC(=O)CCC(=O)O)O[C@@H]2O[C@@]3(C)CC[C@H]4[C@H](C)CC[C@@H]1[C@@]24OO3 [ARTESUNATE] | 96.36

Tested on: Plasmodium yoelii nigeriensis
Test: Antimalarial activity against chloroquine-, mefloquine-, halofantrine-resistant Plasmodium yoelii nigeriensis blood stream schizonts infected in Swiss mouse assessed as disease cured mouse at 24 mg/kg, im administered once daily for 4 days measured on day 28
Type: functional, organism-based
Design: dose 24 mg/kg
Conditions: not given

Row | SMILES | Activity
39 | C[C@H]1[C@@H](OCCCCCCCCO)O[C@@H]2O[C@@]3(C)CC[C@H]4[C@H](C)CC[C@@H]1[C@@]24OO3 | Active
40 | C[C@H]1[C@@H](OCCO)O[C@@H]2O[C@@]3(C)CC[C@H]4[C@H](C)CC[C@@H]1[C@@]24OO3 | Active
41 | C[C@H]1[C@@H](OCCCO)O[C@@H]2O[C@@]3(C)CC[C@H]4[C@H](C)CC[C@@H]1[C@@]24OO3 | Active
42 | C[C@H]1[C@@H](OCCOCCOCCO)O[C@@H]2O[C@@]3(C)CC[C@H]4[C@H](C)CC[C@@H]1[C@@]24OO3 | inactive
43 | C[C@H]1[C@H](OC(=O)CCC(=O)O)O[C@@H]2O[C@@]3(C)CC[C@H]4[C@H](C)CC[C@@H]1[C@@]24OO3 [ARTESUNATE] | inactive

Tested on: not listed separately
Test: Drug degradation in aqueous Na2CO3 under ambient temperature within 48 hrs
Type: physicochemical
Conditions: buffer

Row | SMILES | Drug degradation
44 | C[C@H]1[C@@H](OCCCCCCCCCCOC(=O)CCC(=O)O)O[C@@H]2O[C@@]3(C)CC[C@H]4[C@H](C)CC[C@@H]1[C@@]24OO3 | Not Active
45 | C[C@H]1[C@H](OC(=O)CCC(=O)O)O[C@@H]2O[C@@]3(C)CC[C@H]4[C@H](C)CC[C@@H]1[C@@]24OO3 [ARTESUNATE] | Active

Tested on: Plasmodium yoelii nigeriensis
Test: Antimalarial activity against chloroquine-, mefloquine-, halofantrine-resistant Plasmodium yoelii nigeriensis blood stream schizonts infected in Swiss mouse assessed as suppression of parasitemia at 3 mg/kg, im administered once daily for 4 days relative to control
Type: functional
Conditions: route intramuscular

Row | SMILES | Activity [%]
46 | C[C@H]1[C@@H](OCCCO)O[C@@H]2O[C@@]3(C)CC[C@H]4[C@H](C)CC[C@@H]1[C@@]24OO3 | 98.3
